Measurements taken from patent US10323061B2, “Heteroaryl containing bile acid analogs as FXR/TGR5 agonists and methods of use thereof” (ENANTA PHARMACEUTICALS, INC., priority 2016, dated 2019).

Molecular target: T1, human FXR (NR1H4) (Homo sapiens, UniProt Q96RI1)
T1 construct: host or cells: CHO (Chinese hamster ovary) cells
T1 sequence (Q96RI1 1-486): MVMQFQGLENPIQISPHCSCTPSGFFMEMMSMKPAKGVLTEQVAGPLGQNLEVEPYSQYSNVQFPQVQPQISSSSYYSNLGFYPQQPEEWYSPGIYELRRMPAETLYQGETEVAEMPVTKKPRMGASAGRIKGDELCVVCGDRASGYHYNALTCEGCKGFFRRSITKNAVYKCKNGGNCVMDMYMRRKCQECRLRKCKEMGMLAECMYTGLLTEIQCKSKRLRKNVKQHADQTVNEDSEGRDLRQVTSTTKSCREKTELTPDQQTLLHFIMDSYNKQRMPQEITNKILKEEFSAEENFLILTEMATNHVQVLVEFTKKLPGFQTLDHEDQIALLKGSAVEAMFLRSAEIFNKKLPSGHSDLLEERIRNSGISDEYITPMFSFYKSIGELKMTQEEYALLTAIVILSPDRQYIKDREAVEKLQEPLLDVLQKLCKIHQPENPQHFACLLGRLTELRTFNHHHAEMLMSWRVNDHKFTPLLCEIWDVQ
Assay: Human FXR (NR1H4) Assay (Gal4 promoter driven luciferase reporter, Indigo Bioscience kit IB00601)
Format: cell-based
Settings: CHO reporter cells expressing human NR1H4; for EC50: FXR agonistic potency range, 22 hours incubation; for Efficacy (%): normalized to CDCA set as 100%
Text: Assays Human FXR (NR1H4) Assay Determination of a ligand mediated Gal4 promoter driven transactivation to quantify ligand binding mediated activation of FXR. FXR Reporter Assay kit purchased from Indigo Bioscience (Catalogue number: IB00601) to determine the potency and efficacy of compound developed by Enanta that can induce FXR activation. The principal application of this reporter assay system is to quantify functional activity of human FXR. The assay utilizes non-human mammalian cells, CHO (Chinese hamster ovary) cells engineered to express human NR1H4 protein (referred to as FXR). Reporter cells also incorporate the cDNA encoding beetle luciferase which catalyzes the substrates and yields photon emission. Luminescence intensity of the reaction is quantified using a plate-reading luminometer, Envision. Reporter Cells include the luciferase reporter gene functionally linked to an FXR responsive promoter. Thus, quantifying changes in luciferase expression in the treated reporter cells provides a sensitive surrogate measure of the changes in FXR activity. […] The assay is according to the manufacturer's instructions. In brief, the assay was performed in white, 96 well plates using final volume of 100 ul containing cells with different doses of compounds. Retrieve Reporter Cells from −80° C. storage. Perform a rapid thaw of the frozen cells by transferring a 10 ml volume of 37° C. cell recovery medium into the tube of frozen cells. Recap the tube of Reporter Cells and immediately place it in a 37° C. water bath for 5-10 minutes. Retrieve the tube of Reporter Cell Suspension from the water bath. Sanitize the outside surface of the tube with a 70% alcohol swab, and then transfer it into the cell culture hood. Dispense 90 μl of cell suspension into each well of the 96-well Assay Plate. Transfer the plate into 37° C. incubator, allowing the cells adherent to the bottom of the well. Dilute compounds in Dilution Plate (DP), and administrate to cells at Assay Plate (AP). DMSO content of the samples was kept at 0.2%. Cells were incubated for additional 22 hours before luciferase activities were measured. Thirty minutes before intending to quantify FXR activity, remove Detection Substrate and Detection Buffer from the refrigerator and place them in a low-light area so that they may equilibrate to room temperature. Remove the plate's lid and discard all media contents by ejecting it into an appropriate waste container. Gently tap the inverted plate onto a clean absorbent paper towel to remove residual droplets. Cells will remain tightly adhered to well bottoms. Add 100 μl of luciferase detection reagent to each well of the assay plate. Allow the assay plate to rest at room temperature for at least 5 minutes following the addition of LDR. Set the instrument (Envision) to perform a single 5 second “plate shake” prior to reading the first assay well. Read time may be 0.5 second (500 mSec) per well.

CC[C@H]1[C@@H](O)[C@@H]2[C@H](CC[C@]3(C)[C@@H]([C@H](C)CCc4nnc(N)o4)CC[C@@H]23)[C@@]2(C)CC[C@@H](O)C[C@@H]12 [Example 9]
EC50: 0.1 to 1 µM | Efficacy (%): 222%

CC[C@H]1[C@@H](O)[C@@H]2[C@H](CC[C@]3(C)[C@@H]([C@H](C)CCc4nnc(C5CCCCC5)s4)CC[C@@H]23)[C@@]2(C)CC[C@@H](O)C[C@@H]12 [Example 18]
EC50: 1 to 10 µM | Efficacy (%): 244%

CC[C@H]1[C@@H](O)[C@@H]2[C@H](CC[C@]3(C)[C@@H]([C@H](C)CCc4nc(C5CC5)no4)CC[C@@H]23)[C@@]2(C)CC[C@@H](O)C[C@@H]12 [Example 11]
EC50: 1 to 10 µM | Efficacy (%): 239%

CC[C@H]1[C@@H](O)[C@@H]2[C@H](CC[C@]3(C)[C@@H]([C@H](C)CCc4nnc(-c5ccc(C(C)(C)C)cc5)s4)CC[C@@H]23)[C@@]2(C)CC[C@@H](O)C[C@@H]12 [Example 19]
EC50: 1 to 10 µM | Efficacy (%): 172%

CC[C@H]1[C@@H](O)[C@@H]2[C@H](CC[C@]3(C)[C@@H]([C@H](C)CCc4nnc(C5CC5)[nH]4)CC[C@@H]23)[C@@]2(C)CC[C@@H](O)C[C@@H]12 [Example 13]
EC50: 1 to 10 µM | Efficacy (%): 168%

CC[C@H]1[C@@H](O)[C@@H]2[C@H](CC[C@]3(C)[C@@H]([C@H](C)Cc4nnc(NS(=O)(=O)N(C)C)[nH]4)CC[C@@H]23)[C@@]2(C)CC[C@@H](O)C[C@@H]12 [Example 8]
EC50: 0.1 to 1 µM | Efficacy (%): 234%

CC[C@H]1[C@@H](O)[C@@H]2[C@H](CC[C@]3(C)[C@@H]([C@H](C)CCc4nnc(Cc5ccccc5)s4)CC[C@@H]23)[C@@]2(C)CC[C@@H](O)C[C@@H]12 [Example 16]
EC50: 0.1 to 1 µM | Efficacy (%): 378%

CC[C@H]1[C@@H](O)[C@@H]2[C@H](CC[C@]3(C)[C@@H]([C@H](C)Cc4nnc(-c5ccc(C(C)(C)C)cc5)o4)CC[C@@H]23)[C@@]2(C)CC[C@@H](O)C[C@@H]12 [Example 20]
EC50: 1 to 10 µM | Efficacy (%): 87%

CC[C@H]1[C@@H](O)[C@@H]2[C@H](CC[C@]3(C)[C@@H]([C@H](C)CCc4nnc(N(C)C)o4)CC[C@@H]23)[C@@]2(C)CC[C@@H](O)C[C@@H]12 [Example 14]
EC50: 0.1 to 1 µM | Efficacy (%): 265%

CC[C@H]1[C@@H](O)[C@@H]2[C@H](CC[C@]3(C)[C@@H]([C@H](C)CCc4nnc(-c5ccccc5)s4)CC[C@@H]23)[C@@]2(C)CC[C@@H](O)C[C@@H]12 [Example 15]
EC50: 0.1 to 1 µM | Efficacy (%): 362%

CC[C@H]1[C@@H](O)[C@@H]2[C@H](CC[C@]3(C)[C@@H]([C@H](C)CCc4nnc(C5CC5)o4)CC[C@@H]23)[C@@]2(C)CC[C@@H](O)C[C@@H]12 [Example 10]
EC50: 0.1 to 1 µM | Efficacy (%): 304%

CC[C@H]1[C@@H](O)[C@@H]2[C@H](CC[C@]3(C)[C@@H]([C@H](C)CCc4nnc(C(C)(C)C)s4)CC[C@@H]23)[C@@]2(C)CC[C@@H](O)C[C@@H]12 [Example 17]
EC50: 0.1 to 1 µM | Efficacy (%): 314%

CC[C@H]1[C@@H](O)[C@@H]2[C@H](CC[C@]3(C)[C@@H]([C@H](C)CCc4nnc(C5CC5)s4)CC[C@@H]23)[C@@]2(C)CC[C@@H](O)C[C@@H]12 [Example 12]
EC50: 0.1 to 1 µM | Efficacy (%): 369%
